Source: patent publication US20210260066A1, “METHOD OF USING MEK INHIBITOR TO PREVENT RADIATION INDUCED FIBROSIS” (THOMAS JEFFERSON UNIVERSITY, priority 2018, published 2021)

Experiments:
mouse lung fibroblasts = assay: Pro-fibrotic gene expression (qPCR) in bleomycin-treated mouse lung fibroblasts; assay type: cell-based; conditions: bleomycin alone vs vehicle control
From the text: Indeed, FIGS. 1A, 1B, and 1C depict the ability of trametinib to modulate the expression of pro-fibrotic genes in mouse lung fibroblasts. The three graphs represent expression of (type I collagen and FNEDA) and αSMA. Lung fibroblasts isolated form mouse lungs were placed in cell culture and treated either with saline (control) or bleomycin dissolved in saline and 3 different concentrations of trametinib (2.5, 5 and 10 nmolar) dissolved in DMSO. After treatment with the drug, RNA was extracted and quantified by qPCR. mRNAs for type I collagen (Collal), the FNEDA and αSMA are shown. Control values in FIGS. 1 A, B, and C were set to 100%.

[1] = tested on: rat peritoneal mesothelial cells; assay: TGF-β induced mesothelial-mesenchymal transition (MMT) of rat peritoneal mesothelial cells; assay type: cell-based
Procedure: Isolated mesothelial cells were incubated under control conditions without either TGF-β or trametinib, with TGF-β or trametinib alone, or with both TGF-β and trametinib for five days.
These increases in gene expression of phosphor-Erk1/2, FNEDA, αSMA and p-SMAD2 (linker) were blocked by as low a concentration of trametinib as 2 nM.
The experiments in this study were approved by the Institutional Animal Care and Use Committee at Thomas Jefferson University, and were performed in accordance with the National Institutes of Health guidelines for the care and handling of laboratory animals. […]
RPMCs were lysed in ice-cold modified RIPA buffer with protease inhibitor cocktail (50 mM/L Tris-HCl, 1% NP-40, 0.25% Na-deoxycholate, 150 mM/L NaCl, 1 mM/L EDTA, 1 mmol/L phenylmethyl sulfonyl fluoride, 1 mM/L sodium orthovanadate, 1 mM/L NaF, pH 7.4). Equivalent amounts of homogenate (50 μg/well), determined by Coomassie blue assay, were separated by sodium dodecyl sulfate polyacrylamide gel electrophoresis (SDS-PAGE), transferred to either nitrocellulose or PVDF membranes, and detected by SuperSignal West Femto or Pico chemiluminescence.

C57BL/6 mice = conditions: mouse, in vivo
From the text: C57BL/6 mice were used to develop a consistent model of intra-abdominal adhesion formation. Mouse cecums were gently abraded to promote adhesion formation which were subsequently analyzed histologically and immunochemically to characterize the expression of pro-fibrotic genes including (αSMA and FNEDA isoform, both of which were examined immunohistochemically and by quantitative polymerase chain reaction (qPCR). Trichrome staining was used to assess collagen deposition, a major protein component found in the extracellular matrix (ECM) at adhesion sites. Consistent intra-abdominal adhesions in mice were achieved by gentle cecal abrasion with mortality rates of <10%. Adhesions were seen as early as post-operative day 1 with extensive adhesions being formed and vascularized by day 5. Expression of the FNEDA isoform first and subsequently αSMA and collagen occurred during adhesion maturation.
Equal numbers of male and female C57BL/6 mice (18-25 g, 8-10 weeks of age, Jackson Laboratories, Bar Harbor, Me.) were used in initial experiments while only male mice were used in the drug escalation studies because they sustained greater accumulations of fibrotic tissue (data not shown). […]

Molecule | Increase in expression of Collal mRNA (mouse lung fibroblasts) | Increase in expression of FNEDA mRNA (mouse lung fibroblasts) [%] | Increase in expression of αSMA mRNA (mouse lung fibroblasts) | Concentration blocking the increases of phosphor-Erk1/2, FNEDA, αSMA and p-SMAD2 (linker) ([1]; TGF-β-treated cells) [nM] | Effect of trametinib alone on mesothelial cells (toxicity, appearance) ([1]; trametinib alone, five days) | Wound healing of abdominal muscles and skin at the laparotomy site (C57BL/6 mice)
bleomycin | more than 200% | ~150 | more than 200% |  |  | 
CC(=O)Nc1cccc(-n2c(=O)n(C3CC3)c(=O)c3c(Nc4ccc(I)cc4F)n(C)c(=O)c(C)c32)c1 [trametinib] |  |  |  | ≤ 2 | no effect and no apparent toxic effects | no impairment
